According to patent publication US5733896A, “N-(3-fluoro-2-phosphonylmethoxypropyl) derivatives of purine and pyrimidine heterocyclic bases, their preparation and use” (priority 1990, dated 1998):
Converted amounts (≈) assume the structure as drawn. Where two headings read alike, the source gives them in different places.

Key:
[1] = Cytotoxicity: dose decreasing the viability of MT4 cells to one half; assay type: cell-based; conditions: human, mt-4 cells
Excerpt: (§1) Effect of compounds of the general formula I on multi-
(§2) plication of HIV-1 in tissue cultures of MT-4 cells
^b dose, decreasing the viability of MT4 cells to one half;

HIV-1 = experiment: Effect on multiplication of HIV-1 in tissue cultures of MT-4 cells (suppression of cytopathogenic effect); assay type: cell-based
Excerpt: as §1, §2
^a Dose, suppressing by 50% the cytopatogenic effect of HIV1 in MT4

MSV-induced tumor = experiment: Effect on the evolution of an MSV-induced tumor in newborn NMRI mice; assay type: in vivo
Excerpt: Effect of compounds of the general formula I on the evolution
of an MSV-induced tumor in newborn NMRI mice

[2] = tested on: retroviruses, such as HIV; conditions: cited from earlier work
HIV = conditions: cited from earlier work
[3] = tested on: simian immunodefficiency virus (SIV); conditions: experimental animals; cited from earlier work
murine leukemia virus = conditions: experimental animals; cited from earlier work
Moloney sarcoma virus = conditions: experimental animals; cited from earlier work
[4] = read-out: CD50 (dose, decreasing the viability of MT4 cells to one half)
[5] = Human immunodeficiency virus 1, MT4, HIV-1, MT-4 cells, read-out: ED50 (dose, suppressing by 50% the cytopatogenic effect of HIV1 in MT4 cells)

Row | SMILES | SI (ratio CD50/ED50) (HIV-1; HIV-1, MT-4 cells) | Median day of tumor formation (MSV-induced tumor; dose 1 mg/kg/day) | Median survival time (MSV-induced tumor; dose 1 mg/kg/day) [days] | Median day of tumor formation (MSV-induced tumor; dose 5 mg/kg/day) | Median survival time (MSV-induced tumor; dose 5 mg/kg/day) [days] | Median day of tumor formation (MSV-induced tumor; dose 20 mg/kg/day) | effect on HIV in tissue cultures (HIV) | other results
1 | Nc1ncnc2c1ncn2CC(CF)OCP(=O)(O)O (racemic) [Compound 1, 9-(RS)-(3-fluoro-2-phosphonylmethoxypropyl)-adenine] | > 90 | 5.8 | 10.9 | 7.5 | 14.4 | > 13 | – | CC50 [1, 4]: > 1000 mg/L; EC50 (HIV-1; [5]): 11.2 mg/L (≈ 36.7 µM)
2 | Nc1nc2c(ncn2CC(CF)OCP(=O)(O)O)c(=O)[nH]1 (racemic) [Compound 2] | 50 | 5.2 | 11.7 | 8.5 | 12.5 | > 13 | – | CC50 [1, 4]: 233 mg/L (≈ 725 µM); EC50 (HIV-1; [5]): 4.7 mg/L (≈ 14.6 µM); Median survival time (MSV-induced tumor; dose 20 mg/kg/day): 10 days
3 | Cc1cn([C@H]2C=C[C@@H](CO)O2)c(=O)[nH]c1=O [2',3'-dideoxy-2',3'-didehydrothymidine] | – | – | – | – | – | – | – | efficiency in the treatment of experimental animals [2]: efficient in the treatment of experimental animals
4 | Nc1ccn([C@H]2CC[C@@H](CO)O2)c(=O)n1 [2',3'-dideoxycytidine] | – | – | – | – | – | – | – | efficiency in the treatment of experimental animals [2]: efficient in the treatment of experimental animals
5 | Cc1cc(-c2ccc(/N=N/c3ccc4c(S(=O)(=O)O)cc(S(=O)(=O)O)c(N)c4c3O)c(C)c2)ccc1/N=N/c1ccc2c(S(=O)(=O)O)cc(S(=O)(=O)O)c(N)c2c1O [Evans Blue] | – | – | – | – | – | – | significant effects in tissue cultures | –
6 | Nc1ncnc2c1ncn2CCOCP(=O)(O)O [IX, reference compound] | 7.2 | 6.1 | 14.7 | 10.1 | 17.2 | > 13 | have proven its effect | effect on simian immunodefficiency virus (SIV) [3]: have proven its effect; effect on murine leukemia virus (murine leukemia virus): have proven its effect; CC50 [1]: 14.2 mg/L (≈ 52 µM); EC50 (HIV-1; Human immunodeficiency virus 1, MT4, read-out: ED50 (dose, suppressing by 50% the cytopatogenic effect of HIV1 in MT4 cells)): 2 mg/L (≈ 7.32 µM); effect on Moloney sarcoma virus (Moloney sarcoma virus): have proven its effect
7 | O=C(O)C1=CC(=C(c2ccc(O)c(C(=O)O)c2)c2ccc(O)c(C(=O)O)c2)C=CC1=O [aurine-tricarboxylic acid] | – | – | – | – | – | – | significant effects in tissue cultures | –
